Measurements reported in patent US20250221410A1, “SUBSTITUTED 2-C-AZINES AND SALTS THEREOF, AND USE THEREOF AS HERBICIDAL ACTIVE SUBSTANCES” (BAYER AKTIENGESELLSCHAFT, priority 2022, published 2025).

Experiments:
Type in all cases: in vivo
STEME: Stellaria media [1] = test: Post-emergence herbicidal efficacy at 1280 g/ha, STEME; settings: visual rating about 3 weeks after treatment vs untreated controls
Outline: (§1)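 Weeds grown in sandy loam in the greenhouse were sprayed at the one-leaf stage, 2 to 3 weeks after sowing, with WP or EC formulations in water plus 0.5% additive at 600 L/ha. Damage was scored visually about 3 weeks later against untreated controls (0% = like control, 100% = plants dead).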

POAAN: Poa annua [2] = test: Post-emergence herbicidal efficacy at 1280 g/ha, POAAN; settings: visual rating about 3 weeks after treatment vs untreated controls
Outline: as §1

POAAN: Poa annua [3] = test: Pre-emergence herbicide efficacy at 1280 g/ha, POAAN; settings: visual scoring after about 3 weeks vs untreated controls
Outline: (§2)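 Efficacy is a visual percentage rating against untreated controls, taken about 3 weeks after soil-surface application to freshly sown, soil-covered seeds in sandy loam.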

SETVI: Setaria viridis [4] = test: Post-emergence herbicidal efficacy at 1280 g/ha, SETVI; settings: visual rating about 3 weeks after treatment vs untreated controls
Outline: as §1

KCHSC: Kochia scoparia [5] = test: Post-emergence herbicidal efficacy at 1280 g/ha, KCHSC; settings: visual rating about 3 weeks after treatment vs untreated controls
Outline: as §1

VERPE: Veronica persica [6] = test: Pre-emergence herbicide efficacy at 1280 g/ha, VERPE; settings: visual scoring vs untreated controls
Outline: as §2

STEME: Stellaria media [7] = test: Pre-emergence herbicide efficacy at 1280 g/ha, STEME; settings: visual scoring vs untreated controls
Outline: as §2

[8] = tested on: MATIN: Matricaria inodora; test: Pre-emergence herbicide efficacy at 1280 g/ha, MATIN; settings: visual scoring after about 3 weeks vs untreated controls
Text: (§3) Seeds of mono- and dicotyledonous weed plants were placed in plastic pots in sandy loam soil (doubly sown with one species each of mono- or dicotyledonous weed plants per pot) and covered with soil. The compounds of the invention, formulated in the form of wettable powders (WP) or as emulsion concentrates (EC), were then applied to the surface of the covering soil as aqueous suspension or emulsion with addition of 0.5% additive at a water application rate of 600 litres per hectare (converted). After the treatment, the pots were placed in a greenhouse and kept under good growth conditions for the test plants. After about 3 weeks, the efficacy of the preparations was scored visually in comparison with untreated controls as percentages. For example, 100% activity=the plants have died, 0% activity=like control plants. Tables C1 to C12 below show the effects of selected compounds of the general formula (I) according to Table 1 on various harmful plants and at an application rate corresponding to 1280 g/ha, which were obtained by the trial procedure specified above.

KCHSC: Kochia scoparia [9] = test: Pre-emergence herbicide efficacy at 1280 g/ha, KCHSC; settings: visual scoring after about 3 weeks vs untreated controls
Outline: as §2

[10] = tested on: ABUTH: Abutilon theophrasti; test: Pre-emergence herbicide efficacy at 1280 g/ha, ABUTH; settings: visual scoring after about 3 weeks vs untreated controls
Outline: as §2

SETVI: Setaria viridis [11] = test: Pre-emergence herbicide efficacy at 1280 g/ha, SETVI; settings: visual scoring vs untreated controls
Outline: as §2

[12] = tested on: AMARE: Amaranthus retroflexus; test: Pre-emergence herbicide efficacy at 1280 g/ha, AMARE; settings: visual scoring after about 3 weeks vs untreated controls
Outline: as §2

[13] = tested on: AMARE: Amaranthus retroflexus; test: Post-emergence herbicidal efficacy at 1280 g/ha, AMARE; settings: rated visually after about 3 weeks vs untreated controls, 100% = plants have died, 0% = like control plants
Outline: as §1

LOLRI: Lolium rigidum = test: Pre-emergence herbicide efficacy at 1280 g/ha, LOLRI; settings: visual scoring after about 3 weeks vs untreated controls
Text: as §3

[14] = tested on: DIGSA: Digitaria sanguinalis; test: Pre-emergence herbicide efficacy at 1280 g/ha, DIGSA; settings: visual scoring after about 3 weeks vs untreated controls
Outline: as §2

[15] = tested on: DIGSA: Digitaria sanguinalis; test: Post-emergence herbicidal efficacy at 1280 g/ha, DIGSA; settings: rated visually after about 3 weeks vs untreated controls, 100% = plants have died, 0% = like control plants
Outline: as §1

[16] = tested on: ABUTH: Abutilon theophrasti; test: Post-emergence herbicidal efficacy at 1280 g/ha, ABUTH; settings: rated visually after about 3 weeks vs untreated controls, 100% = plants have died, 0% = like control plants
Outline: as §1

[17] = tested on: ECHCG: Echinochloa crus-galli; test: Pre-emergence herbicide efficacy at 1280 g/ha, ECHCG; settings: visual scoring after about 3 weeks vs untreated controls
Outline: as §2

[18] = tested on: AMARE: Amaranthus retroflexus; test: Pre-emergence herbicide efficacy at 80 g/ha, AMARE; settings: scored visually after about 3 weeks
Text: (§4) Seeds of monocotyledonous and dicotyledonous weed plants and crop plants were placed in plastic or organic planting pots and covered with soil. The compounds of the invention, formulated in the form of wettable powders (WP) or as emulsion concentrates (EC), were then applied to the surface of the covering soil as aqueous suspension or emulsion with addition of 0.5% additive at a water application rate equivalent to 600 l/ha. After the treatment, the pots were placed in a greenhouse and kept under good growth conditions for the test plants. After about 3 weeks, the efficacy of the preparations was scored visually in comparison with untreated controls as percentages. For example, 100% activity=the plants have died, 0% activity=like control plants. Tables D1 to D12 below show the effects of selected compounds of the general formula (I) according to Table 1 on various harmful plants and an application rate corresponding to 80 g/ha, which were obtained by the experimental procedure mentioned above.

VERPE: Veronica persica [19] = test: Post-emergence herbicidal efficacy at 1280 g/ha, VERPE; settings: visual rating about 3 weeks after treatment vs untreated controls
Outline: as §1

[20] = tested on: AMARE: Amaranthus retroflexus; test: Post-emergence herbicidal efficacy at 80 g/ha, AMARE; settings: visual rating about 3 weeks after treatment vs untreated controls
Experimental: (§5) Seeds of monocotyledonous and dicotyledonous weeds and crop plants were placed in sandy loam in plastic or organic planting pots, covered with soil and cultivated in a greenhouse under controlled growth conditions. 2 to 3 weeks after sowing, the test plants were treated at the one-leaf stage. The compounds of the invention, formulated in the form of wettable powders (WP) or as emulsion concentrates (EC), were then sprayed onto the green parts of the plants as aqueous suspension or emulsion with addition of 0.5% additive at a water application rate of 600 l/ha (converted). After the test plants had been kept in the greenhouse under optimum growth conditions for about 3 weeks, the activity of the preparations was rated visually in comparison to untreated controls. For example, 100% activity=the plants have died, 0% activity=like control plants. Tables B1 to B10 below show the effects of selected compounds of the general formula (I) according to Table 1 on various harmful plants and an application rate corresponding to 80 g/ha, which were obtained by the experimental procedure mentioned above.

VERPE: Veronica persica [21] = test: Post-emergence herbicidal efficacy at 80 g/ha, VERPE; settings: visual rating about 3 weeks after treatment vs untreated controls
Experimental: as §5

VERPE: Veronica persica [22] = test: Pre-emergence herbicide efficacy at 80 g/ha, VERPE; settings: scored visually after about 3 weeks
Text: as §4

[23] = tested on: ALOMY: Alopecurus myosuroides; test: Pre-emergence herbicide efficacy at 1280 g/ha, ALOMY; settings: visual scoring after about 3 weeks vs untreated controls
Text: as §3

[24] = tested on: ECHCG: Echinochloa crus-galli; test: Post-emergence herbicidal efficacy at 1280 g/ha, ECHCG; settings: rated visually after about 3 weeks vs untreated controls, 100% = plants have died, 0% = like control plants
Outline: as §1

[25] = tested on: ABUTH: Abutilon theophrasti; test: Pre-emergence herbicide efficacy at 80 g/ha, ABUTH; settings: scored visually after about 3 weeks
Text: as §4

VIOTR: Viola tricolor = test: Post-emergence herbicidal efficacy at 80 g/ha, VIOTR; settings: visual rating about 3 weeks after treatment vs untreated controls
Experimental: as §5

POLCO = test: Pre-emergence herbicide efficacy at 80 g/ha, POLCO; settings: Polygonum convolvulus, scored visually after about 3 weeks
Text: as §4

[26] = tested on: DIGSA: Digitaria sanguinalis; test: Pre-emergence herbicide efficacy at 80 g/ha, DIGSA; settings: scored visually after about 3 weeks
Text: as §4

SETVI: Setaria viridis [27] = test: Pre-emergence herbicide efficacy at 80 g/ha, SETVI; settings: scored visually after about 3 weeks
Text: as §4

[28] = tested on: MATIN: Matricaria inodora; test: Pre-emergence herbicide efficacy at 80 g/ha, MATIN; settings: scored visually after about 3 weeks
Text: as §4

SMILES	Post-emergence efficacy against STEME (STEME: Stellaria media [1]) [%]	Post-emergence efficacy against POAAN (POAAN: Poa annua [2]) [%]	Pre-emergence efficacy against POAAN (POAAN: Poa annua [3]) [%]	Post-emergence efficacy against KCHSC (KCHSC: Kochia scoparia [5]) [%]	Pre-emergence efficacy against VERPE in % (VERPE: Veronica persica [6]) [%]	Pre-emergence efficacy against STEME in % (STEME: Stellaria media [7]) [%]	Pre-emergence efficacy against MATIN [8] [%]	Pre-emergence efficacy against KCHSC (KCHSC: Kochia scoparia [9]) [%]	Pre-emergence efficacy against ABUTH [10] [%]	Pre-emergence efficacy against SETVI in % (SETVI: Setaria viridis [11]) [%]	Pre-emergence efficacy against AMARE [12] [%]	Post-emergence efficacy at 1280 g/ha against AMARE in % [13] [%]	Pre-emergence efficacy against DIGSA [14] [%]	Pre-emergence efficacy against ECHCG [17] [%]	Pre-emergence efficacy against AMARE in % [18] [%]	Post-emergence efficacy against VERPE (VERPE: Veronica persica [19]) [%]	Post-emergence efficacy against AMARE [20] [%]	Pre-emergence efficacy against ABUTH in % [25] [%]	Pre-emergence efficacy against POLCO in % (POLCO) [%]	Pre-emergence efficacy against DIGSA in % [26] [%]	also measured
N#Cc1cccc(Cc2ncc(Cl)cn2)c1-n1cc(C(F)(F)F)cn1 [Example 1-45]	90	90	90	100	100	100	90	100	100	100	100	100	100	100	100	100	–	–	–	–	Post-emergence efficacy against SETVI (SETVI: Setaria viridis [4]): 90%; Pre-emergence efficacy against LOLRI (LOLRI: Lolium rigidum): 90%; Post-emergence efficacy at 1280 g/ha against DIGSA in % [15]: 90%; Post-emergence efficacy at 1280 g/ha against ABUTH in % [16]: 90%
Fc1cccc(Oc2ncc(Cl)cn2)c1Cc1ncc(Cl)cn1 [Example 1-51]	–	–	90	90	100	100	100	100	100	100	100	100	100	90	90	100	100	–	–	–	Post-emergence efficacy against VERPE (VERPE: Veronica persica [21]): 100%; Pre-emergence efficacy against VERPE in % (VERPE: Veronica persica [22]): 80%
Clc1cnc(Cc2c(Br)cccc2Oc2ncc(Cl)cn2)nc1 [Example 1-53]	100	100	100	100	100	100	100	100	100	100	100	100	100	100	–	100	–	–	–	–	Pre-emergence efficacy against ALOMY [23]: 100%; Post-emergence efficacy against SETVI (SETVI: Setaria viridis [4]): 100%; Post-emergence efficacy at 1280 g/ha against ECHCG in % [24]: 100%; Pre-emergence efficacy against LOLRI (LOLRI: Lolium rigidum): 100%; Post-emergence efficacy at 1280 g/ha against DIGSA in % [15]: 90%; Post-emergence efficacy at 1280 g/ha against ABUTH in % [16]: 100%
Fc1cnc(Oc2cccc(Cl)c2Cc2ncc(Cl)cn2)nc1 [Example 1-57]	90	90	100	90	100	100	100	100	100	100	100	90	100	100	–	90	–	–	–	–	Pre-emergence efficacy against ALOMY [23]: 100%; Post-emergence efficacy against SETVI (SETVI: Setaria viridis [4]): 90%; Post-emergence efficacy at 1280 g/ha against ECHCG in % [24]: 90%; Pre-emergence efficacy against LOLRI (LOLRI: Lolium rigidum): 100%; Post-emergence efficacy at 1280 g/ha against DIGSA in % [15]: 90%; Post-emergence efficacy at 1280 g/ha against ABUTH in % [16]: 90%
Fc1ccc(Oc2ccccc2Cc2ncc(F)cn2)cc1 [Example 1-67]	–	–	–	–	–	–	–	–	–	–	–	–	–	–	90	–	100	100	–	–	Post-emergence efficacy against VERPE (VERPE: Veronica persica [21]): 80%; Post-emergence efficacy against VIOTR (VIOTR: Viola tricolor): 100%
Fc1cnc(Cc2ccccc2-c2cc(C(F)F)no2)nc1 [Example 1-135]	–	–	–	–	–	–	–	–	–	–	–	–	–	–	100	–	100	95	90	–	Pre-emergence efficacy against VERPE in % (VERPE: Veronica persica [22]): 95%
Fc1cnc(Oc2c(F)cccc2Cc2ncc(Cl)cn2)nc1 [Example 1-152]	–	–	–	–	–	–	–	–	–	–	–	–	–	–	100	–	90	80	90	90	Pre-emergence efficacy against SETVI in % (SETVI: Setaria viridis [27]): 80%
Fc1cnc(Cc2cccc(Cl)c2Oc2ncc(F)cn2)nc1 [Example 1-156]	–	–	–	–	–	–	–	–	–	–	–	–	–	–	100	–	80	90	80	90	Pre-emergence efficacy against MATIN in % [28]: 80%
Cc1cccc(Cc2ncc(Cl)cn2)c1Oc1ncc(Cl)cn1 [Example 1-166]	–	–	–	–	–	–	–	–	–	–	–	–	–	–	95	–	–	–	90	100	Pre-emergence efficacy against SETVI in % (SETVI: Setaria viridis [27]): 80%
Fc1ccc(Cc2c(F)cccc2Oc2ncc(Cl)cn2)nc1 [Example 1-194]	–	–	–	–	–	–	–	–	–	–	–	–	–	–	100	–	98	–	90	90	Pre-emergence efficacy against VERPE in % (VERPE: Veronica persica [22]): 90%; Pre-emergence efficacy against SETVI in % (SETVI: Setaria viridis [27]): 100%
